Results taken from PubChem BioAssay AID2060511 (Molecular Pharmacology Branch, DTP, NCI, 2025).
“And” between values parts separate entries of the source, which are not always exact repeats. Equal values may be shown once.

Tested on: 422866-222-R5-J1-PDC spheroids with HUVEC/MSC, viability
Experiment: Anticancer human tumor 422866-222-R5-J1-PDC patient-derived pancreatic adenocarcinoma cell line growth inhibition [GQUAD]
Conditions: for viability, T/C: stronger effect = lower value
From the text: DNA G-quadruplex Stabilizer Agents in Combinations in Complex Spheroids
A high-throughput screen of multi-cell type tumor spheroids was designed to identify active combinations of DNA G-quadruplex stabilizer agents and targeted small molecules. Complex spheroids include a stromal component modeled by human endothelial cells (HUVEC) and fibroblasts modeled by human mesenchymal stem cells (MSCs). The concentration ranges selected for each drug and investigational agent were based upon clinically achievable concentrations if the clinical Cmax of the agent was known.
Compounds. The drugs and investigational agents: pidnarulex (CX-5461; NSC782164), APTO-253 (NSC789042), BRACO-19 (NSC847499), peposertib (NSC802822), ceralasertib (NSC780249), elimusertib (NSC800525), camonsertib (NSC841442), AZD-1390 (NSC803789), olaparib (NSC753686), talazoparib (NSC767125), ART-558 (NSC835418), sotorasib (NSC818433), MRTX-1133 (NSC836407), SN-38 (NSC673596), topotecan (NSC609699), etoposide (NSC141540), doxorubicin (NSC123127), gemcitabine (NSC613327), 5-fluorouracil (NSC19893), paclitaxel (NSC125973), vemurafenib (NSC761431), panobinostat (NSC761190), R-306465 (JNJ-16241199; NSC773264), adavosertib (NSC754352), TP-3654 (NSC805149), carboplatin (NSC241240), KSQ-4279 (NSC840948), and staurosporine (NSC755774) were obtained from the National Cancer Institute (NCI) Developmental Therapeutics Program Chemical Repository (34). The FDA-approved anticancer drug set is available from the NCI Developmental Therapeutics Program. […] The stock solutions were prepared in dimethyl sulfoxide (DMSO, Sigma-Aldrich, St. Louis, MO, cat. D2650) at 800-fold the tested concentration and stored at -70 degrees C prior to their use. All drugs and investigational agents were tested over a range starting from a high concentration at or near the clinical Cmax and decreasing in half-log increments. If the clinical Cmax for an agent had not been determined, the highest concentration tested was 10 microM.
2.3 Cell Culture. All cells were maintained in an incubator at 37 degrees C and 5% CO2 with 95% humidity. The PDC lines were cultured according to standard operating procedures established by the NCI PDMR. All PDCs were thawed and cultured in Matrigel-coated flasks prepared with a working solution of 1X Ham's F-12 nutrient mix, without supplementation (Invitrogen, cat. 11765054), 100 U/mL penicillin-streptomycin (Invitrogen, cat. 15140122), and 2.5% Matrigel (Corning Inc., cat. 354248) for the first three passages. The 857933-349-R-J2-PDC line was cultured in 6C/Colon 1B media, which includes advanced DMEM/F-12 (Thermo Fisher Scientific, cat. 12634028), 10 mM HEPES (Thermo Fisher Scientific, cat. 15630080), 1X GlutaMAX supplement (Thermo Fisher Scientific, cat. 35050061), 0.1 mg/mL primocin (InvivoGen, cat. ant-pm-2), 10% defined fetal bovine serum, heat inactivated (HyClone Laboratories Inc., cat. SH30070.03HI), 50% L-WRN conditioned media (ATCC, cat. CRL-3276), 1.25 mM N-Acetyl-L-cysteine (Sigma-Aldrich, cat. A9165), 10 mM nicotinamide (Sigma-Aldrich, cat. N0636), 1X B-27 supplement (Thermo Fisher Scientific, cat. 17504044), 1X N-2 supplement (Thermo Fisher Scientific, cat. 17502048), 10 microM Y-27632 dihydrochloride (Tocris Bioscience, cat. 1254), and 50 ng/mL human EGF recombinant protein (Thermo Fisher Scientific, cat. PHG0311). The 485176-168-R4-J1-PDC line was cultured in Panc media, which includes all 6C/Colon 1B media components plus 100 ng/mL human FGF-10 (Thermo Fisher Scientific, cat. 100-26), 500 nM SB-431542 (Selleckchem, cat. S1067), and gastrin (Tocris, cat. 3006).
[…]
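Further: spheroids exposed to compounds for seven days before reading.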
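Wherever viability, T/C is given: percent viability relative to DMSO vehicle control taken as 100%.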

## COc1ccc([C@@H](O)c2cc(-c3ncnc4cc(N5CCOCC5)ccc34)c(F)cc2Cl)nn1
Compound 0.0316 µM
  viability, T/C: 82.4% and 103% and 110%
Compound 0.1 µM
  viability, T/C: 76.2% and 78.4% and 99%
Compound 0.316 µM
  viability, T/C: 81.6% and 86% and 90.4%
Compound 1 µM
  viability, T/C: 63.3% and 76.9% and 70.8%
Compound 3.16 µM
  viability, T/C: 51.5% and 44.1% and 60.7%
Compound 10 µM
  viability, T/C: 36.9% and 35.1% and 47.2%
Curve of compound
  IC50: 3.15 µM and 2.62 µM and 7.88 µM

## CC(C)n1c(=O)n(C)c2cnc3cc(F)c(-c4ccc(OCCCN5CCCCC5)nc4)cc3c21
Compound 0.0316 µM
  viability, T/C: 99.2% and 87.6% and 100%
Compound 0.1 µM
  viability, T/C: 80.5% and 101% and 90.1%
Compound 0.316 µM
  viability, T/C: 110% and 104% and 113%
Compound 1 µM
  viability, T/C: 97.4% and 95.7% and 97.5%
Compound 3.16 µM
  viability, T/C: 85.5% and 89.8% and 90.1%
Compound 10 µM
  viability, T/C: 58.6% and 62.1% and 64.2%
Curve of compound
  IC50: > 10 µM

## Nc1ccn(C2OC(CO)C(O)C2(F)F)c(=O)n1 (stereo unspecified)
Compound 0.0316 µM
  viability, T/C: 87.9% and 88.9% and 93.4%
Compound 0.1 µM
  viability, T/C: 66% and 76.8% and 74.1%
Compound 0.316 µM
  viability, T/C: 61.7% and 70.3% and 61.1%
Compound 1 µM
  viability, T/C: 51.8% and 55.9% and 40%
Compound 3.16 µM
  viability, T/C: 41.4% and 48.6% and 40%
Compound 10 µM
  viability, T/C: 40.8% and 39.7% and 38%
Curve of compound
  IC50: 0.993 µM and 2.48 µM and 0.598 µM

## Cn1ncnc1[C@H]1c2n[nH]c(=O)c3cc(F)cc(c23)N[C@@H]1c1ccc(F)cc1
Compound 0.000999 µM
  viability, T/C: 91.3% and 88.8% and 87.1%
Compound 0.00316 µM
  viability, T/C: 107% and 96.2% and 77.8%
Compound 0.00999 µM
  viability, T/C: 96.3% and 99.6% and 107%
Compound 0.0316 µM
  viability, T/C: 91.8% and 90.4% and 88.1%
Compound 0.0999 µM
  viability, T/C: 80.6% and 91.5% and 75.3%
Compound 0.316 µM
  viability, T/C: 78.1% and 72.3% and 73.5%
Curve of compound
  IC50: > 0.316 µM

## O=C(c1cc(Cc2n[nH]c(=O)c3ccccc23)ccc1F)N1CCN(C(=O)C2CC2)CC1
Compound 0.0316 µM
  viability, T/C: 95.7% and 90.6% and 98.8%
Compound 0.1 µM
  viability, T/C: 89.7% and 88.2% and 93.5%
Compound 0.316 µM
  viability, T/C: 95.3% and 90.9% and 94%
Compound 1 µM
  viability, T/C: 81.4% and 92.8% and 99.6%
Compound 3.16 µM
  viability, T/C: 74% and 86.8% and 84%
Compound 10 µM
  viability, T/C: 79.3% and 66.8% and 59%
Curve of compound
  IC50: > 10 µM

## CC1COCCN1c1cc(C2(O)CC3CCC(C2)O3)c2cnn(-c3ccn[nH]3)c2n1 (stereo unspecified)
Compound 0.0316 µM
  viability, T/C: 79.2% and 81.7% and 79.9%
Compound 0.1 µM
  viability, T/C: 44.1% and 40% and 47.8%
Compound 0.316 µM
  viability, T/C: 42.2% and 37.5% and 56.3%
Compound 1 µM
  viability, T/C: 57.8% and 66.2% and 79.9%
Compound 3.16 µM
  viability, T/C: 89.3% and 91.2% and 80.4%
Compound 10 µM
  viability, T/C: 90.9% and 96% and 90.3%
Curve of compound
  IC50: > 10 µM

## Cc1cccc(N(C)C(=O)C2C(O)CCN2c2nc(C)cc(C(F)(F)F)c2C#N)c1 (stereo unspecified)
Compound 0.0316 µM
  viability, T/C: 96.3% and 97.3% and 82.4%
Compound 0.1 µM
  viability, T/C: 103% and 95.9% and 89.9%
Compound 0.316 µM
  viability, T/C: 103% and 102% and 96.2%
Compound 1 µM
  viability, T/C: 101% and 96.9% and 109%
Compound 3.16 µM
  viability, T/C: 99.9% and 77.2% and 105%
Compound 10 µM
  viability, T/C: 108% and 97.5% and 98%
Curve of compound
  IC50: > 10 µM

## CCCS(=O)(=O)Nc1ccc(F)c(C(=O)c2c[nH]c3ncc(-c4ccc(Cl)cc4)cc23)c1F + Cc1cnc(CNC(=O)c2c(=O)c3ccc(N4CCCN(C)CC4)nc3n3c2sc2ccccc23)cn1
Curve of first compound, second compound 0.0316 µM
  IC50: > 10 µM
Curve of first compound, second compound 0.1 µM
  IC50: > 10 µM
Curve of first compound, second compound 0.316 µM
  IC50: > 10 µM
Curve of first compound, second compound 1 µM
  IC50: > 10 µM
Curve of first compound, second compound 3.16 µM
  IC50: > 10 µM
Curve of first compound, second compound 10 µM
  IC50: > 10 µM
Second compound 0.0316 µM, first compound 0.0316 µM
  viability, T/C: 96.8%
Second compound 0.0316 µM, first compound 0.1 µM
  viability, T/C: 89.2%
Second compound 0.0316 µM, first compound 0.316 µM
  viability, T/C: 117%
Second compound 0.0316 µM, first compound 1 µM
  viability, T/C: 109%
Second compound 0.0316 µM, first compound 3.16 µM
  viability, T/C: 145%
Second compound 0.0316 µM, first compound 10 µM
  viability, T/C: 54.9%
Second compound 0.1 µM, first compound 0.0316 µM
  viability, T/C: 93.9%
Second compound 0.1 µM, first compound 0.1 µM
  viability, T/C: 87.3%
Second compound 0.1 µM, first compound 0.316 µM
  viability, T/C: 115%
Second compound 0.1 µM, first compound 1 µM
  viability, T/C: 92%
Second compound 0.1 µM, first compound 3.16 µM
  viability, T/C: 109%
Second compound 0.1 µM, first compound 10 µM
  viability, T/C: 84.7%
Second compound 0.316 µM, first compound 0.0316 µM
  viability, T/C: 78.6%
Second compound 0.316 µM, first compound 0.1 µM
  viability, T/C: 90.4%
Second compound 0.316 µM, first compound 0.316 µM
  viability, T/C: 90%
Second compound 0.316 µM, first compound 1 µM
  viability, T/C: 115%
Second compound 0.316 µM, first compound 3.16 µM
  viability, T/C: 102%
Second compound 0.316 µM, first compound 10 µM
  viability, T/C: 86.6%
Second compound 1 µM, first compound 0.0316 µM
  viability, T/C: 73.2%
Second compound 1 µM, first compound 0.1 µM
  viability, T/C: 80.7%
Second compound 1 µM, first compound 0.316 µM
  viability, T/C: 87.2%
Second compound 1 µM, first compound 1 µM
  viability, T/C: 110%
Second compound 1 µM, first compound 3.16 µM
  viability, T/C: 111%
Second compound 1 µM, first compound 10 µM
  viability, T/C: 86%
Second compound 3.16 µM, first compound 0.0316 µM
  viability, T/C: 72.9%
Second compound 3.16 µM, first compound 0.1 µM
  viability, T/C: 80.9%
Second compound 3.16 µM, first compound 0.316 µM
  viability, T/C: 85.5%
Second compound 3.16 µM, first compound 1 µM
  viability, T/C: 93.7%
Second compound 3.16 µM, first compound 3.16 µM
  viability, T/C: 95.1%
Second compound 3.16 µM, first compound 10 µM
  viability, T/C: 88.7%
Second compound 10 µM, first compound 0.0316 µM
  viability, T/C: 69.2%
Second compound 10 µM, first compound 0.1 µM
  viability, T/C: 76.2%
Second compound 10 µM, first compound 0.316 µM
  viability, T/C: 109%
Second compound 10 µM, first compound 1 µM
  viability, T/C: 86.8%
Second compound 10 µM, first compound 3.16 µM
  viability, T/C: 96%
Second compound 10 µM, first compound 10 µM
  viability, T/C: 94.2%
